Measured values: patent publication US20090041806A1, “USE OF PRODRUGS OF GABA ANALOGS, ANTISPASTICITY AGENTS, AND PRODRUGS OF GABA B RECEPTOR AGONISTS FOR TREATING SPASTICITY” (XenoPort, Inc., priority 2007, published 2009)

Columns and labels:
[1] = oral; 2 mg t.i.d. R-baclofen equivalent to 10 mg t.i.d. racemic baclofen; cited from earlier work
[2] = cited from earlier work
[3] = Uptake of gabapentin following intracolonic administration of gabapentin or gabapentin prodrugs in rats; type: in vivo; conditions: rat, dose equivalent to 25 mg gabapentin per kg
Method: Sustained release oral dosage forms, which release drug slowly over periods of 6-24 hours, generally release a significant proportion of the dose within the colon. […] This experiment was conducted to assess the suitability of gabapentin prodrugs for use in oral sustained release dosage forms.
Rats were obtained commercially and were pre-cannulated in the both the ascending colon and the jugular vein. Animals were conscious at the time of the experiment. All animals were fasted overnight and until 4 hours post-dosing. […]
were administered as a solution (in water or PEG 400) directly into the colon via the cannula at a dose equivalent to 25 mg of gabapentin per kg. […] Blood samples were analyzed as described below. […]
were used. […] The peaks were integrated using Analyst 1.1 quantitation software.

[4] = Randomized, crossover, fed/fasted single-dose pharmacokinetic study of oral sustained release tablets of compound (7) in healthy adult subjects; conditions: for AUC of compound (7) in blood as percent of the corresponding AUC of gabapentin in blood / maximum intact prodrug concentration as percent of the corresponding peak gabapentin concentration: oral tablets
Method: A randomized, crossover, fed/fasted single-dose study of the safety, tolerability, and pharmacokinetics of oral administration of 1-{[α-isobutanoyloxyethoxy)carbonyl]aminomethyl}-1-cyclohexane acetic acid (7) in healthy adult subjects was conducted. The oral sustained release dosage form of Example 4 was used in this study. The study was designed to evaluate the performance of this formulation in humans in comparison with the commercial gabapentin capsule formulation (Neurontin®, Pfizer). Twelve healthy adult volunteers (7 males and 5 females) participated in the study. Mean body weight was 75.6 kg. All subjects received two different treatments in a random order with a one-week washout between treatments. The two treatments were: a single oral dose of Example 4 tablets (2×600 mg) after an overnight fast; and a single oral dose of Example 4 tablets (2×600 mg) after a high fat breakfast.
Blood and plasma samples were collected from all subjects prior to dosing, and at 0.5, 1, 1.5, 2, 3, 4, 6, 8, 12, 18, 24, and 36 hours after dosing. Urine samples were collected from all subjects prior to dosing, and complete urine output was obtained at the 0-4 h, 4-8 h, 8-12 h, 12-18 h, 18-24 h, and 24-36 h intervals after dosing. Blood samples were quenched immediately with methanol and stored frozen at […] Sample aliquots were prepared for analysis of gabapentin and compound (7) using sensitive and specific LC/MS/MS methods.

[5] = oral baclofen; cited from earlier work
[6] = Uptake of R-baclofen following oral administration of R-baclofen prodrugs to cynomolgus monkeys; conditions: cynomolgus monkey, in vivo
Method: (5 mg baclofen-eq/kg) were administered by oral gavage to groups of four male cynomolgus monkeys as either an aqueous solution or suspension in 0.5% methylcellulose/0.1% Tween-80 respectively. […] The oral bioavailability of both prodrugs: • (sodium 4-{[(1S)-isobutanoyloxyisobutoxy]carbonylamino}-(3R)-(4-chlorophenyl)-butanoate; and • 4-{[(1S)-isobutanoyloxyisobutoxy]carbonylamino}-(3R)-(4-chlorophenyl)-butanoic acid;

Question: For NC[C@H](CC(=O)O)c1ccc(Cl)cc1 [R-baclofen, R-(−)-baclofen], which “potency of orally administered R-baclofen relative to orally administered racemic baclofen” value [1] is on record?
Answer: about 5 fold

Question: With NCC1(CC(=O)O)CCCCC1 [gabapentin] as the molecule, how does the “typical Tmax of immediate release gabapentin” value [2] read?
Answer: 2 to 4 h

Question: With CC(OC(=O)NCC1(CC(=O)O)CCCCC1)OC(=O)C(C)C (stereo not drawn) [compound (7), 1-{[(α-isobutanoyloxyethoxy)carbonyl]aminomethyl}-1-cyclohexane acetic acid] as the molecule, how does the “area under the gabapentin plasma concentration vs. time curve (AUC) relative to colonic administration of gabapentin itself” value [3] read?
Answer: greater than 10 fold

Question: And the “maximum plasma concentration of gabapentin (Cmax) relative to colonic administration of gabapentin itself” value [3]?
Answer: greater than 10 fold

Question: And the “maximum concentration of intact compound (7) in blood” value ([4]; human, in vivo, po)?
Answer: 0.040 µg/mL

Question: What about the “AUC of compound (7) in blood as percent of the corresponding AUC of gabapentin in blood” value ([4]; fasted subjects) of the same molecule?
Answer: 0.3%

Question: And the “maximum intact prodrug concentration as percent of the corresponding peak gabapentin concentration” value ([4]; fasted subjects)?
Answer: approximately 1.0%

Question: What about the “AUC of compound (7) in blood as percent of the corresponding AUC of gabapentin in blood” value ([4]; fed subjects) of the same molecule?
Answer: less than 0.1%

Question: What about the “maximum intact prodrug concentration as percent of the corresponding peak gabapentin concentration” value ([4]; fed subjects) of the same molecule?
Answer: approximately 0.3%

Question: Which elimination half-life [5] does the source give for NCC(CC(=O)O)c1ccc(Cl)cc1 (racemic) [Baclofen, (±)-4-amino-3-(4-chlorophenyl)butanoic acid] here?
Answer: 3 to 4 h

Question: Which “oral bioavailability as R-baclofen” value [6] does the source give for CC(C)C(=O)O[C@@H](OC(=O)NC[C@H](CC(=O)[O-])c1ccc(Cl)cc1)C(C)C.[Na+] [sodium 4-{[(1S)-isobutanoyloxyisobutoxy]carbonylamino}-(3R)-(4-chlorophenyl)-butanoate] here?
Answer: greater than 80%
